# Legend:
# Assay type in all cases: in vivo
# Ctenocephalides felis = Ctenocephalides felis in-vitro contact test, adult cat flea (CTECFE Cont); conditions: application rate 5 μg/cm^2 (=500 g/ha), adult cat fleas, after 48 hours, read-out: activity (efficacy: 100% means all fleas are dead or moribund)
# In short: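 Efficacy, as percent of fleas dead or moribund, was scored 48 h after adults (5-10 per tube) were placed in glass tubes whose walls carried dried compound at 5 μg/cm^2 (900 ppm solution). Moribund meant failing to climb away from a 45-50° C. hot plate within 5 min.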
# Nezara viridula = Nezara viridula spray test; conditions: in Hordeum vulgare, 96 h, barley plants, larvae, after 4 days; for mortality at 500 g/ha: application rate 500 g/ha; for mortality at 100 g/ha: application rate 100 g/ha
# In short: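 Mortality was read at day 4 (0% = no kill, 100% = total kill) after spraying larva-infested barley plants. Test solutions were made from an acetone/DMF concentrate diluted with water holding 1000 ppm alkylarylpolyglycol ether emulsifier.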
# Rhipicephalus microplus [1] = experiment: Rhipicephalus (Boophilus) microplus in-vitro contact test, larval cattle tick, strain Parkhurst (BOOPMI Cont); conditions: application rate 5 μg/cm^2 (=500 g/ha), tick larvae, after 48 hours, read-out: activity (efficacy: 100% means all larvae are dead or moribund)
# In short: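 After 48 h at 27° C. and 85% humidity, percent dead or moribund larvae was scored from negative geotactic behaviour. Larvae (20-50, Parkhurst strain, synthetic pyrethroid-resistant) were exposed in tubes coated with compound from acetone, 900 ppm corresponding to 5 μg/cm^2.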
# Spodoptera frugiperda = Spodoptera frugiperda spray test; conditions: in Zea mays, 168 h, read-out: activity (mortality)
# In short: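 Percent kill of fall armyworm caterpillars was assessed 7 days after infesting dried, treated maize leaf sections. Treatment was a spray of compound in acetone/dimethylformamide, diluted with water containing emulsifier at 1000 ppm.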
# Diabrotica balteata = Diabrotica balteata spray test; conditions: 168 h, wheat seeds, larvae, after 7 days, read-out: activity (efficacy: 100% means all seedlings have grown up like in the untreated, uninfected control); for pest or weed control at 32 µg/disc, 100 g/ha: application rate 100 g/ha (=32 μg/well); for pest or weed control at 160 µg/disc, 500 g/ha: application rate 500 g/ha (=160 μg/well)
# In short: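 Efficacy (%) was scored 7 days after spraying, with 100% meaning growth like the untreated, uninfected control and 0% meaning no seedling grew. Spray solutions of compound in acetone/DMF with emulsifier-containing water went onto 1-day-germinated wheat seeds, and each unit was then infested with 10-20 banded cucumber beetle larvae.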
# [2] = tested on: Musca domestica strain WHO—N; experiment: Musca domestica test (MUSCDO surface treatment & contact assay); conditions: exposure 30 minutes, 24 hours after contact, read-out: efficacy (mortality); for mortality at 4 mg/m2: surface concentration 4 mg/m^2, glazed tile; for mortality at 20 mg/m2: surface concentration 20 mg/m^2, glazed tile
# In short: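 Compound dissolved in acetone (2 mg/ml) with 2000 ppm rapeseed oil methyl ester and pipetted onto glazed tile; after acetone evaporation, adult flies exposed to dried surface for 30 minutes. Mortality (%) scored 24 hours after contact.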
# Rhipicephalus microplus [3] = experiment: Rhipicephalus (Boophilus) microplus injection test (BOOPMI Inj); conditions: 168 h, injection into adult engorged female ticks, egg deposition after 7 days, read-out: activity (efficacy: 100% means all eggs are infertile); for pest or weed control at 0.004 mg: application rate 4 μg/tick; for pest or weed control at 0.02 mg: application rate 20 μg/tick
# In short: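 Compound in DMSO, 1 μL, injected abdominally into five adult engorged females, which were then held in a climate chamber. Read-out is egg fertility, scored from deposition at 7 days, with unclear eggs followed to hatching (~42 days); 0% means all eggs fertile, 100% all infertile.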
Compound,pest or weed control at 5 µg/cm2 (Ctenocephalides felis) [%],mortality at 500 g/ha (Nezara viridula) [%],pest or weed control at 5 µg/cm2 (Rhipicephalus microplus [1]) [%],mortality at 100 g/ha (Spodoptera frugiperda) [%],mortality at 500 g/ha (Spodoptera frugiperda) [%],"pest or weed control at 32 µg/disc, 100 g/ha (Diabrotica balteata) [%]","pest or weed control at 160 µg/disc, 500 g/ha (Diabrotica balteata) [%]",mortality at 4 mg/m2 [2] [%],pest or weed control at 0.004 mg (Rhipicephalus microplus [3]) [%],pest or weed control at 0.02 mg (Rhipicephalus microplus [3]) [%],mortality at 100 g/ha (Nezara viridula) [%],mortality at 20 mg/m2 [2] [%]
CCc1nc([C@H](C)NC(=O)c2cc(Cl)cc(Cl)c2)n(-c2ccc(C#N)cn2)n1 [I-2],100,90,100,100,100,100,100,80 to 100,100,100,–,–
C[C@H](NC(=O)c1cc(Cl)nc(C(F)(F)F)c1)c1ncnn1-c1ccc(C#N)cn1 [II-5],100,100,100,100,100,100,100,80 to 100,100,100,90,80 to 100
C[C@H](NC(=O)c1cc(Cl)cc(OC(F)(F)F)c1)c1ncnn1-c1cc(N)ccn1 [II-7],90,90,–,–,100,100,100,–,100,100,–,80 to 100
C[C@H](NC(=O)c1ccnc(C(F)(F)F)n1)c1ncnn1-c1ccc(C#N)cn1 [II-8],90,100,100,–,100,100,100,80 to 100,100,100,100,80 to 100
C[C@H](NC(=O)c1cc(Cl)cc(SC(F)F)c1)c1ncnn1-c1ccc(C#N)cn1 [II-11],100,–,100,100,100,100,100,80 to 100,100,100,100,80 to 100
C[C@H](NC(=O)c1cc(Cl)cc(C(F)F)c1)c1ncnn1-c1ccc(C#N)cn1 [II-12],100,100,100,100,100,100,100,80 to 100,100,100,100,80 to 100
C[C@H](NC(=O)c1cc(Br)cc(Br)c1)c1ncnn1-c1ccc(C#N)cn1 [II-13],100,90,100,100,100,100,–,80 to 100,100,100,–,80 to 100
C[C@H](NC(=O)c1cc(Br)cc(OC(F)(F)F)c1)c1ncnn1-c1ccc(C#N)cn1 [II-14],100,100,100,100,100,100,100,80 to 100,100,100,100,80 to 100
C[C@H](NC(=O)c1cc(Cl)cc(OC(F)(F)F)c1)c1ncnn1-c1ncc(Cl)s1 [II-16],100,100,100,100,–,100,100,–,100,100,90,80 to 100
C[C@H](NC(=O)c1cc(Cl)cc(C(F)(F)F)c1)c1ncnn1-c1cc(N)ccn1 [II-28],100,90,90,–,100,100,100,–,100,100,–,80 to 100
C[C@H](NC(=O)c1cc(Cl)cc(OC(F)(F)F)c1)c1ncnn1-c1ncc(OC(F)F)cn1 [II-30],100,100,100,100,100,100,100,80 to 100,100,100,100,80 to 100
CCN(C(=O)c1ccc(-n2ncnc2[C@H](C)NC(=O)c2cc(Cl)cc(C(F)(F)F)c2)nc1)C1CC1 [II-31],100,90,100,100,100,100,100,–,100,100,–,80 to 100
CC(=O)Nc1ccnc(-n2ncnc2[C@H](C)NC(=O)c2cc(Cl)cc(C(F)(F)F)c2)c1 [II-36],80,90,100,100,100,–,–,–,100,100,–,80 to 100
C[C@H](NC(=O)c1cc(Cl)cc(C#N)c1)c1ncnn1-c1ccc(C#N)cn1 [II-57],100,–,100,100,–,–,–,80 to 100,100,100,100,80 to 100
Cc1nc([C@H](C)NC(=O)c2cncc(C(F)(F)F)c2)n(-c2ccc(C#N)cn2)n1 [II-63],100,–,100,–,–,100,–,–,100,100,100,80 to 100
C[C@H](NC(=O)c1cc(C(F)(F)F)cc(C(F)(F)F)c1)c1ncnn1-c1ccc(C(=O)N(C)CC2CC2)cn1 [II-73],100,100,100,100,100,100,100,–,100,100,100,–
C[C@H](NC(=O)c1cc(Cl)cc(C(F)(F)F)c1)c1ncnn1-c1ccc(N(C)C(=O)C2CC2)cn1 [II-79],100,–,100,100,–,100,–,–,100,–,100,–
Cc1nc([C@H](C)NC(=O)c2cc(C(F)(F)F)cc(C(F)(F)F)c2)n(-c2ccc(C(=O)N(C)CC#N)cn2)n1 [II-99],100,–,100,–,–,100,–,80 to 100,100,–,100,80 to 100
